Data: patent US20260097105A1, “SYSTEMS, FORMULATIONS AND METHODS FOR GENERATING UNIVERSAL PEPTIDE/MHC COMPLEXES WITH ENGINEERED DISULFIDE CONNECTING THE HEAVY AND LIGHT CHAINS” (priority 2022, published 2026)

Experiments:
MR1 = biological target: T1, MR1 (Homo sapiens, UniProt Q95460, C283S/G138C); assay: Fluorescence polarization competitive ligand binding (JYM20, DCF-loaded open MR1); details: 10 nM JYM20; 200 nM DCF-loaded open MR1; pH 7.4
T1 construct: made in house; host or cells: Escherichia coli BL21(DE3) per the general methods
T1 sequence (Q95460 with tags, fused parts or gaps G138C/C283S): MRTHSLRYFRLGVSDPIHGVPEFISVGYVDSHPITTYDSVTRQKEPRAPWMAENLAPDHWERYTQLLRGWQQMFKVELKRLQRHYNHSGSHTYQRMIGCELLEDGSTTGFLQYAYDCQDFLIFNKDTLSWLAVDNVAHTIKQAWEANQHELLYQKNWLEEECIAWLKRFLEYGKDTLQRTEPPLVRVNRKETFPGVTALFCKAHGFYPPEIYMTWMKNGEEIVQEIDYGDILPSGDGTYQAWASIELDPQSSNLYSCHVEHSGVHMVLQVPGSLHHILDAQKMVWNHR
T1 sequence (as listed by the source partner): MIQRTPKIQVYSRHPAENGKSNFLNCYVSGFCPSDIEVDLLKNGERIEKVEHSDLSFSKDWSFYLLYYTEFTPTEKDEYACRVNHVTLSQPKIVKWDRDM
Description: To optimize fluorescence polarization (FP), a direct binding assay between JYM20 and MR1 was conducted to determine the minimum concentration of MR1 and JYM20 required for a maximal signal, as well as the buffer conditions. The FP signal is generated by polarized excitation wavelengths, resulting in depolarized emission when JYM20 is free in solution (with low FP value). […] Because DCF is not a covalent binding ligand, the DCF-loaded open MR1 and JYM20 can together screen a wide range of cancer metabolites for MR1.
Briefly, a buffer consistent of 150 mM NaCl, 20 mM sodium phosphate, 0.05% Tween-20, pH 7.4 was used since Applicants don't need nonphysiologically acidic environment to break the Schiff base. A serial dilution of cancer metabolites in a range of 60-0.06 mM, which were selected from the preliminary in silico screening, was added to 200 nM MR1 and 10 nM JYM20 in a final volume of 100 μL. The kinetic association was monitored for 16 hours, and polarization measurements were recorded every 186 seconds. Excitation and emission values used to monitor the fluorescence of TAMRA-labeled peptides were 531 and 595 nm. All experiments were performed in triplicates at room temperature. Raw parallel (III) and perpendicular emission intensities (I⊥) were collected and converted to polarization (mP) values using the equation 1000*[(III−(G*I⊥))/(III+(G*I⊥))]. An optimized G-factor was determined to be 0.33 for TAMRA-labeled peptides in calculating baseline fluorescence. Non-linear regression fitting of one phase association allowed calculating plateau polarization (mP) values for each kinetic curve. Log transformed values of each peptide concentration were plotted against the plateau mP value, and an IC50 curve was fit using log (inhibitor) vs. response (three parameters) curve from GraphPad Prism v9^9.

[1] = system: WT or open HLA-A*29:02/FTSDYYQLY; assay: Fluorescence polarization IC50 competition assay; format: binding, human; details: competitor vs FITCKLIDVFHQY
Source text: Kinetic association measurements were collected as previously described. Non-linear regression fitting allowed calculating plateau polarization (mP) values for each kinetic curve. Log transformed values of each peptide concentration were plotted against the plateau mP value, and an IC50 curve was fit.

Compound | relative binding affinities (IC50) to MR1 (MR1) | IC50, open compared to WT [1]
O=C(O)C1=CC(=O)[C@@H](O)[C@H](O)C1 [3DA, 3-Dehydroshikimic acid] | low-millimolar | –
ALIDVFHQY | – | same IC50

More lines, main results first:

relative binding affinities (IC50) to MR1 (MR1) | Compound | IC50, open compared to WT [1]
low-millimolar | O=C(O)Cc1ccccc1Nc1c(Cl)cccc1Cl [DCF, diclofenac, reference compound] | –
low-millimolar | O=C(O)C1=C[C@@H](O)[C@@H](O)[C@H](O)C1 [SKA, shikimic acid] | –
low-millimolar | O=c1ccn([C@@H]2O[C@H](COP(=O)(O)O)[C@@H](O)[C@H]2O)c(=O)[nH]1 [UMP, Uridine 5′-monophosphate] | –
